Assay results from patent US4108991A, “N-aminosulfenyl derivatives of aldicarb” (priority 1976, dated 1978).
Values joined by “and” are separate entries in the source; they are usually repeats but may differ in a detail not shown here. Equal values may be shown once.

Experiments:
[1] = Toxicity to rats, acute oral median lethal dose (LD50), Method A; format: in vivo, young female albino rats, derived from Sprague-Dawley stock; conditions: in vivo, rat, corn oil, 14 days observation
Description: Method A: Young female albino rats, derived from Sprague-Dawley stock and weighing between 175 and 200 g, were used. An initial screening was conducted to determine the general level of toxicity of the test compounds and to establish the dosing range to be used with each compound. The test materials were suspended in corn oil and administered directly into the stomachs of the rats, using a hypodermic syringe equipped with a ball-tipped intubating needle. A range of dosing levels was employed utilizing two rats at each level. […] This method was used to determine the toxicity to rats of the compounds of Examples I, II, and III and aldicarb.

Pea aphid [2] = assay: Initial contact activity, leaf dip, pea aphid; format: in vivo, Acyrthosiphon pisum [Harris]; conditions: for Percent Kill: initial, PA, 48 hours
Description: (§1) Initial Contact Activity: One half gram of test compound was dissolved in 40 ml of acetone and this solution was dispersed in 360 ml of water containing one drop of isooctylphenyl polyethoxyethanol. Aliquots of this solution, which corresponds to 1250 ppm of active ingredient, were diluted with an appropriate amount of water to provide solutions containing various concentrations of active ingredient. Test organisms and techniques were as follows: The activity against the Mexican bean beetle (Epilachna varivestis Muls.) and the southern armyworm (Spodoptera eridania [Cram.]) was evaluated by dipping the leaves of pinto bean plants into the test solution and infesting the leaves with the appropriate immature-form insects when the foiliage had dried; the activity against the pea aphid (Acyrthosiphon pisum [Harris]) was evaluated on broad bean plants whose leaves were dipped before infestation with adult aphids; the activity against two-sotted spider mites (Tetranychus urticae Koch) was evaluated on pinto bean plants whose leaves were dipped after infestation with adult mites; the activity against the milkweed bug (Oncopeltus fasciatus [Dallas]), and the plum curculio (Conotrachelus nenuphar [Herbst]) was evaluated by spraying the test solutions into glass dishes or jars containing the adult insects; the activity against the confused flour beetle (Tribolium confusum duVal) was evaluated by introducing the insects into glass dishes which had been previously sprayed with test solution and allowed to dry. All organisms in the test were maintained in a holding room at 80° F and 50% relative humidity for an exposure period of 48 hours. At the end of this time, the dead and living insects or mites were counted, and the percent kill was calculated.

Southern armyworm [3] = assay: Initial contact activity, leaf dip, southern armyworm; format: in vivo, Spodoptera eridania [Cram.]; conditions: for Percent Kill: initial, AW, 48 hours
Description: as §1

Two-spotted spider mite [4] = assay: Initial contact activity, leaf dip, two-spotted spider mite; format: in vivo, Tetranychus urticae Koch; conditions: for Percent Kill: initial, SM, 48 hours, 2880 min
Description: as §1

Milkweed bug [5] = assay: Initial contact activity, spray, milkweed bug; format: in vivo, Oncopeltus fasciatus [Dallas]
Description: as §1

Plum curculio [6] = assay: Initial contact activity, spray, plum curculio; format: in vivo, Conotrachelus nenuphar [Herbst]; conditions: Conotrachelus nenuphar, 48 h, read-out: Percent Kill
Description: as §1

Granary Weevil = assay: Initial contact activity, granary weevil; format: in vivo
Pea aphid [7] = assay: Residual (7-day) contact activity, pea aphid; format: in vivo, Acyrthosiphon pisum [Harris]; conditions: Acyrthosiphon pisum, 168 h
Description: as §1
(§2) Residual Contact Activity: The residual contact activity of the compounds was determined on the same organisms using the techniques described above, except that in each case the treated surface was allowed to dry and was exposed to normal light and air for seven days before introduction of the mites or insects.

Southern armyworm [8] = assay: Residual (7-day) contact activity, southern armyworm; format: in vivo, Spodoptera eridania [Cram.]; conditions: Spodoptera eridania, 168 h
Description: as §1, §2

Milkweed bug [9] = assay: Residual (7-day) contact activity, milkweed bug; format: in vivo, Oncopeltus fasciatus [Dallas]; conditions: for Percent Kill: residual 7-day, MWB
Description: as §1, §2

Plum curculio [10] = assay: Residual (7-day) contact activity, plum curculio; format: in vivo, Conotrachelus nenuphar [Herbst]
Description: as §1, §2

Confused flour beetle = assay: Residual (7-day) contact activity, confused flour beetle; format: in vivo, Tribolium confusum duVal; conditions: Tribolium confusum, 168 h, read-out: Percent Kill
Description: as §1, §2

Mexican bean beetle = assay: Systemic activity, soil-watering, Mexican bean beetle; format: in vivo, Epilachna varivestis Muls.; conditions: Epilachna varivestis, 48 h
Description: as §1
(§3) Systemic Activity: Systemic activity was measured using a soil-watering technique. Test organisms were Mexican bean beetle, southern armyworm, pea aphid, and mites on plants as described above in this Example. With appropriate precautions to avoid contact of the solution with the test plant surfaces, 25 ml of a test solution, prepared as above to contain the desired amount of active ingredient, were poured evenly over the surface of the soil in which the plant was growing. The treated plants were maintained under normal growing conditions for three days to permit translocation of the toxicant, after which the leaves were infested. Two days after infestation, counts of living and dead insects were made.

Two-spotted spider mite [11] = assay: Systemic activity, soil-watering, two-spotted spider mite; format: in vivo, Tetranychus urticae Koch; conditions: Tetranychus urticae, 48 h
Description: as §1, §3

[12] = Conotrachelus nenuphar, 168 h, read-out: Percent Kill

CNC(=O)ON=CC(C)(C)SC [Aldicarb, 2-methyl-2-(methylthio)propanal O-(methylcarbamoyl)oxime]
LD50 at 336 h [1]: 0.5 mg/kg
mortality at 10 ppm (Pea aphid [2]; Acyrthosiphon pisum, foliar, 48 h, read-out: Percent Kill, initial, PA, 10 PPM, 48 hours): 33%
mortality at 20 ppm (Pea aphid [2]; Acyrthosiphon pisum, foliar, 48 h, read-out: Percent Kill, initial, PA, 20 PPM, 48 hours): 35%
mortality at 156 ppm (Pea aphid [2]; Acyrthosiphon pisum, foliar, 48 h, read-out: Percent Kill, initial, PA, 156 PPM, 48 hours): 100%
mortality at 1250 ppm (Pea aphid [2]; Acyrthosiphon pisum, foliar, 48 h, read-out: Percent Kill, initial, PA, 1250 PPM, 48 hours): 100%
Percent Kill (Pea aphid [2]; 39 PPM, 2880 min): 60% and 85%
Percent Kill (Pea aphid [2]; 156 PPM): 100%
mortality at 156 ppm (Southern armyworm [3]; Spodoptera eridania, foliar, 48 h, read-out: Percent Kill, initial, AW, 156 PPM, 48 hours): 23%
mortality at 312 ppm (Southern armyworm [3]; Spodoptera eridania, foliar, 48 h, read-out: Percent Kill, initial, AW, 312 PPM, 48 hours): 0%
mortality at 625 ppm (Southern armyworm [3]; Spodoptera eridania, foliar, 48 h, read-out: Percent Kill, initial, AW, 625 PPM, 48 hours): 12%
Percent Kill (Southern armyworm [3]; 312 PPM): 0%
Percent Kill (Southern armyworm [3]; 625 PPM, 2880 min): 15%
mortality at 5 ppm (Two-spotted spider mite [4]; Tetranychus urticae, foliar, 48 h, read-out: Percent Kill, initial, SM, 5 PPM, 48 hours): 21%
mortality at 10 ppm (Two-spotted spider mite [4]; Tetranychus urticae, foliar, 48 h, read-out: Percent Kill, initial, SM, 10 PPM, 48 hours): 88%
mortality at 20 ppm (Two-spotted spider mite [4]; Tetranychus urticae, foliar, 48 h, read-out: Percent Kill, initial, SM, 20 PPM, 48 hours): 100%
mortality at 39 ppm (Two-spotted spider mite [4]; Tetranychus urticae, foliar, 48 h, read-out: Percent Kill, initial, SM, 39 PPM, 48 hours): 100%
mortality at 156 ppm (Two-spotted spider mite [4]; Tetranychus urticae, foliar, 48 h, read-out: Percent Kill, initial, SM, 156 PPM, 48 hours): 100%
mortality at 1250 ppm (Two-spotted spider mite [4]; Tetranychus urticae, foliar, 48 h, read-out: Percent Kill, initial, SM, 1250 PPM, 48 hours): 100%
Percent Kill (Two-spotted spider mite [4]; 10 PPM): 100%
Percent Kill (Two-spotted spider mite [4]; 1250 PPM): 95%
mortality at 5 ppm (Milkweed bug [5]; Oncopeltus fasciatus, 48 h, read-out: Percent Kill, initial, MWB, 5 PPM, 48 hours): 30%
mortality at 10 ppm (Milkweed bug [5]; Oncopeltus fasciatus, 48 h, read-out: Percent Kill, initial, MWB, 10 PPM, 48 hours): 55%
mortality at 20 ppm (Milkweed bug [5]; Oncopeltus fasciatus, 48 h, read-out: Percent Kill, initial, MWB, 20 PPM, 48 hours): 95%
mortality at 39 ppm (Milkweed bug [5]; Oncopeltus fasciatus, 48 h, read-out: Percent Kill, initial, MWB, 39 PPM, 48 hours): 100%
mortality at 156 ppm (Milkweed bug [5]; Oncopeltus fasciatus, 48 h, read-out: Percent Kill, initial, MWB, 156 PPM, 48 hours): 100%
mortality at 1250 ppm (Milkweed bug [5]; Oncopeltus fasciatus, 48 h, read-out: Percent Kill, initial, MWB, 1250 PPM, 48 hours): 100%
Percent Kill (Milkweed bug [5]; initial, MWB, 10 PPM, 48 hours, 2880 min): 70%
mortality at 10 ppm (Plum curculio [6]): 10%
mortality at 39 ppm (Plum curculio [6]): 35%
mortality at 156 ppm (Plum curculio [6]): 100%
mortality at 1250 ppm (Plum curculio [6]): 100%
mortality at 20 ppm (Granary Weevil; Sitophilus granarius, 48 h, read-out: Percent Kill, initial, GW, 20 PPM, 48 hours): 20%
mortality at 39 ppm (Granary Weevil; Sitophilus granarius, 48 h, read-out: Percent Kill, initial, GW, 39 PPM, 48 hours): 40%
mortality at 156 ppm (Granary Weevil; Sitophilus granarius, 48 h, read-out: Percent Kill, initial, GW, 156 PPM, 48 hours): 100%
mortality at 312 ppm (Granary Weevil; Sitophilus granarius, 48 h, read-out: Percent Kill, initial, GW, 312 PPM, 48 hours): 100%
mortality at 1250 ppm (Granary Weevil; Sitophilus granarius, 48 h, read-out: Percent Kill, initial, GW, 1250 PPM, 48 hours): 100%
Percent Kill (Granary Weevil; initial, GW, 156 PPM, 48 hours, 2880 min): 97.5%
mortality at 156 ppm (Pea aphid [7]; read-out: Percent Kill, residual 7-day, PA, 156 PPM): 0%
mortality at 625 ppm (Pea aphid [7]; read-out: Percent Kill, residual 7-day, PA, 625 PPM): 10%
mortality at 1250 ppm (Pea aphid [7]; read-out: Percent Kill, residual 7-day, PA, 1250 PPM): 100%
mortality at 312 ppm (Southern armyworm [8]; read-out: Percent Kill, residual 7-day, AW, 312 PPM): 0%
mortality at 625 ppm (Southern armyworm [8]; read-out: Percent Kill, residual 7-day, AW, 625 PPM): 0%
mortality at 156 ppm (Milkweed bug [9]; Oncopeltus fasciatus, 168 h, read-out: Percent Kill, residual 7-day, MWB, 156 PPM): 15%
mortality at 312 ppm (Milkweed bug [9]; Oncopeltus fasciatus, 168 h, read-out: Percent Kill, residual 7-day, MWB, 312 PPM): 80%
mortality at 625 ppm (Milkweed bug [9]; Oncopeltus fasciatus, 168 h, read-out: Percent Kill, residual 7-day, MWB, 625 PPM): 100%
mortality at 1250 ppm (Milkweed bug [9]; Oncopeltus fasciatus, 168 h, read-out: Percent Kill, residual 7-day, MWB, 1250 PPM): 100%
Percent Kill (Milkweed bug [9]; 312 PPM): 70%
Percent Kill (Milkweed bug [9]; 1250 PPM): 100%
mortality at 156 ppm (Plum curculio [10]; [12]): 4.8%
mortality at 312 ppm (Plum curculio [10]; [12]): 32%
mortality at 625 ppm (Plum curculio [10]; [12]): 0%
mortality at 1250 ppm (Plum curculio [10]; [12]): 0%
Percent Kill (Plum curculio [10]; residual 7-day, PC, 1250 PPM): 0%
mortality at 312 ppm (Confused flour beetle): 0%
mortality at 1250 ppm (Confused flour beetle): 0%
mortality at 39 ppm (Mexican bean beetle; read-out: Percent Kill, systemic, BB, 39 PPM): 100%
mortality at 156 ppm (Mexican bean beetle; read-out: Percent Kill, systemic, BB, 156 PPM): 100%
mortality at 2.5 ppm (Two-spotted spider mite [11]; read-out: Percent Kill, systemic, SM, 2.5 PPM): 4.6%
mortality at 10 ppm (Two-spotted spider mite [11]; read-out: Percent Kill, systemic, SM, 10 PPM): 100%
mortality at 39 ppm (Two-spotted spider mite [11]; read-out: Percent Kill, systemic, SM, 39 PPM): 100%
